{
  "source": "paper PMC10380188",
  "about": "“A Random Forest Model for Peptide Classification Based on Virtual Docking Data” (International Journal of Molecular Sciences, 2023)",
  "note": "No end group written: not given here.",
  "data": [
    {"molecular_target": "porcine epidemic diarrhea virus spike (PEDV S) protein (Porcine epidemic diarrhea virus, UniProt Q91AV1)", "sequence (Q91AV1 26-1383)": "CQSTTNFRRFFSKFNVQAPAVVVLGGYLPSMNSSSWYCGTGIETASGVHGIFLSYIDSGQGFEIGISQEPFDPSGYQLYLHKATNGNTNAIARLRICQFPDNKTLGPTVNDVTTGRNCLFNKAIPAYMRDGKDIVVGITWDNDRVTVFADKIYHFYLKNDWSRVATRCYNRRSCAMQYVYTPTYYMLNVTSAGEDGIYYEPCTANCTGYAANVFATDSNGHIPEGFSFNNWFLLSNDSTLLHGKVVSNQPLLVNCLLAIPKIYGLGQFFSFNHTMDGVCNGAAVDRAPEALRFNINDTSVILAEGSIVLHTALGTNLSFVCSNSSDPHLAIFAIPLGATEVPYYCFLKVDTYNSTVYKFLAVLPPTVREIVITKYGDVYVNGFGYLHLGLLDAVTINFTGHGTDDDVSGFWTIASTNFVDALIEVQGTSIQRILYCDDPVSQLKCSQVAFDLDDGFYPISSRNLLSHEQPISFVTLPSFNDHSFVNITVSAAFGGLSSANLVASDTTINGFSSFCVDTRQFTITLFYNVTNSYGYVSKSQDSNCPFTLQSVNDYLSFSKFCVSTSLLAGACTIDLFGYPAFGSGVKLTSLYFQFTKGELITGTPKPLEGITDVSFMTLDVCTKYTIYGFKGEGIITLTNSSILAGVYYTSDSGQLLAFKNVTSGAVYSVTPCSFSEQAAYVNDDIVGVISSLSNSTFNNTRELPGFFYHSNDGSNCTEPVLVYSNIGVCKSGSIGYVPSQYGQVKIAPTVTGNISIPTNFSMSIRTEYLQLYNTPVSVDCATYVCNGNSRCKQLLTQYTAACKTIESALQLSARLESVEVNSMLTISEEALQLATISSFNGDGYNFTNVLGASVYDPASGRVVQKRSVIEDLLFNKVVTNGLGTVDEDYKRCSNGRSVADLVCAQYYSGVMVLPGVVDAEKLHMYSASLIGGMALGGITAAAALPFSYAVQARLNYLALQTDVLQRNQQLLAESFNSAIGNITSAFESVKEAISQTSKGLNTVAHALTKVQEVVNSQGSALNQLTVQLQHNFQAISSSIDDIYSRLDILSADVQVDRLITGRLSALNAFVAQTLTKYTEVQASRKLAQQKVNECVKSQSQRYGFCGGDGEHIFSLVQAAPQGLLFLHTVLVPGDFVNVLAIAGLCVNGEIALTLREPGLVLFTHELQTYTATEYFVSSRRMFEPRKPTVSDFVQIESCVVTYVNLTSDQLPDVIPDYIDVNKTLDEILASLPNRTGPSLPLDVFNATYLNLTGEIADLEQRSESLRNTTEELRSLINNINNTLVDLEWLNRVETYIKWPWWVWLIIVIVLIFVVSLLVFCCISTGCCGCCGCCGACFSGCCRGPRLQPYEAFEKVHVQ", "assay": "SPR affinity assay, KD of six-amino-acid peptides to PEDV S protein", "type": "binding", "details": "Receptor PEDV S; PEDV peptide dataset used for model performance validation; value repeated on each docking-pose line", "method": "(§1) Equilibrium dissociation constants (KD) between all 194 (115 + 79) peptides and their receptor proteins were determined by SPR using the Biacore X100 instrument. Proteins were coupled to the CM5 chip by the EDC/NHS(1-Ethyl-3-(3′-dimethylaminopropyl) carbodiimide/n-Hydroxysuccinimide) method (GE HealthCare, Chicago, IL, USA), followed by running HBS-EP (HEPES Buffered Saline–EDTA–Surfactant P20) buffer (GE HealthCare, USA) that flowed through the entire pipeline. The peptide was diluted in six different concentrations with HBS-EP buffer and flowed into the machine from low to high, and its resonance signal change was detected separately. In each cycle, the peptide solution flowed through the chip at a constant flow rate of 30 μL/min for 120 s, and the peptide reacted fully with the protein, followed by HBS-EP buffer flowing through the chip at the same rate for 120 s, and the peptide was partially dissociated from the protein. Finally, the peptides bound to the proteins were completely eluted off with 0.25% SDS solution for the next cycle until all peptides were detected. The KD between each peptide and protein was calculated and analyzed using Biacore X100 Evaluation Software (Version 2.1) to determine its affinity.\n(§2) Following the methods described above, a totally new dataset was constructed to further verify the performance of the constructed model. […] Meanwhile, the PEDV peptides were synthesized and tested by SPR successively, and the obtained KD values were further used to define the class of each peptide based on the criteria described above. Finally, the new 6-amino-acid peptide dataset for PEDV S combining all scores of the important features and class information was built to further test the predictive correctness of the RF model (Supplementary Table S2).", "units": {"Kd": "µM"}, "values": [
      {"compound": "WHFMIY [DPL_1040]", "Kd": 179},
      {"compound": "WHFNRP [DPL_1046]", "Kd": 65.2},
      {"compound": "WHFQNQ [DPL_1037]", "Kd": 3.23},
      {"compound": "WHFKYR [DPL_1041]", "Kd": 0.0015},
      {"compound": "FWKQNKCR [DPL_1034]", "Kd": 24.2},
      {"compound": "WHFHWP [DPL_1045]", "Kd": 176},
      {"compound": "WHFFKT [DPL_1039]", "Kd": 25.7},
      {"compound": "WHFWWQ [DPL_1044]", "Kd": 88.5},
      {"compound": "FWKEAK [DPL_1032]", "Kd": 7.72},
      {"compound": "WHFEYF [DPL_1043]", "Kd": 43.7},
      {"compound": "WHFCQH [DPL_1038]", "Kd": 0.16},
      {"compound": "FWKQNKFL [DPL_1035]", "Kd": 15},
      {"compound": "WHFWIV [DPL_1042]", "Kd": 15.2},
      {"compound": "FWKAKQ [DPL_1033]", "Kd": 45.5},
      {"compound": "FWKISH [DPL_1030]", "Kd": 28},
      {"compound": "WHFSKC [DPL_1036]", "Kd": 3.22},
      {"compound": "N=C(N)NCCC[C@H](NC(=O)[C@H](CCCCN)NC(=O)[C@H](CO)NC(=O)[C@H](CCCCN)NC(=O)[C@H](Cc1c[nH]c2ccccc12)NC(=O)[C@@H](N)Cc1ccccc1)C(=O)O", "note": "[DPL_1031]", "Kd": 2.16}
    ]},
    {"molecular_target": "porcine epidemic diarrhea virus spike (PEDV S) protein (Porcine epidemic diarrhea virus, UniProt Q91AV1)", "assay": "SPR affinity assay, KD of six-amino-acid peptides to PEDV S protein", "type": "binding", "details": "Receptor PEDV S; SPR; value repeated on each docking-pose line of the peptide", "method": "as §1, §2", "units": {"Kd": "µM"}, "values": [
      {"compound": "RKQHCK [DPL_1057]", "Kd": 1.53},
      {"compound": "KHQWKY [DPL_1062]", "Kd": 326},
      {"compound": "RKQHLL [DPL_1055]", "Kd": 1},
      {"compound": "RKQYWQ [DPL_1058]", "Kd": 728},
      {"compound": "KHQAHH [DPL_1060]", "Kd": 0.0431},
      {"compound": "RKQHIS [DPL_1056]", "Kd": 384}
    ]},
    {"molecular_target": "porcine epidemic diarrhea virus spike (PEDV S) protein (Porcine epidemic diarrhea virus, UniProt Q91AV1)", "assay": "SPR affinity assay, KD of six-amino-acid peptides to PEDV S protein", "type": "binding", "details": "SPR, peptide to PEDV S protein; value repeated on each docking-pose line of the peptide", "method": "as §1, §2", "units": {"Kd": "µM"}, "values": [
      {"compound": "FWKYNT [DPL_1023]", "Kd": 32.5},
      {"compound": "FWKCDV [DPL_1022]", "Kd": 116},
      {"compound": "FWKLWS [DPL_1024]", "Kd": 0.987},
      {"compound": "FWKHRI [DPL_1029]", "Kd": 36},
      {"compound": "FWKFNE [DPL_1027]", "Kd": 56.6},
      {"compound": "FWKYAW [DPL_1028]", "Kd": 56.8},
      {"compound": "FWKHEK [DPL_1025]", "Kd": 132},
      {"compound": "FWKWWW [DPL_1026]", "Kd": 17.7}
    ]},
    {"molecular_target": "porcine epidemic diarrhea virus spike (PEDV S) protein (Porcine epidemic diarrhea virus, UniProt Q91AV1)", "assay": "SPR affinity assay, KD of six-amino-acid peptides to PEDV S protein", "type": "binding", "details": "SPR, receptor PEDV S; value repeated on each of the 20 docking-pose lines per peptide", "method": "as §1, §2", "units": {"Kd": "µM"}, "values": [
      {"compound": "FWKFWK [DPL_1018]", "Kd": 25.4},
      {"compound": "FWKPKR [DPL_1021]", "Kd": 39.5},
      {"compound": "FWKKED [DPL_1020]", "Kd": 7.04},
      {"compound": "FWKQNK [DPL_1013]", "Kd": 1190},
      {"compound": "FWKHDI [DPL_1017]", "Kd": 56.2},
      {"compound": "FWKWHW [DPL_1014]", "Kd": 0.136},
      {"compound": "FWKSWH [DPL_1016]", "Kd": 34.9},
      {"compound": "FWKPDQ [DPL_1019]", "Kd": 16.7},
      {"compound": "FWKYHE [DPL_1015]", "Kd": 43.4}
    ]},
    {"molecular_target": "porcine epidemic diarrhea virus spike (PEDV S) protein (Porcine epidemic diarrhea virus, UniProt Q91AV1)", "assay": "SPR affinity assay, KD of six-amino-acid peptides to PEDV S protein", "type": "binding", "details": "receptor PEDV S; PEDV peptide dataset for model performance validation; value repeated on each of the peptide's 20 lines", "method": "as §1, §2", "units": {"Kd": "µM"}, "values": [
      {"compound": "KHQHFG [DPL_1063]", "Kd": 9.99},
      {"compound": "KHQVHR [DPL_1064]", "Kd": 9.82},
      {"compound": "KHQKRC [DPL_1067]", "Kd": 0.139}
    ]},
    {"molecular_target": "porcine epidemic diarrhea virus spike (PEDV S) protein (Porcine epidemic diarrhea virus, UniProt Q91AV1)", "assay": "SPR affinity assay, KD of six-amino-acid peptides to PEDV S protein", "type": "binding", "details": "receptor PEDV S; PEDV peptide dataset used for model performance validation; same value repeated on each line of a peptide", "method": "as §1, §2", "units": {"Kd": "µM"}, "values": [
      {"compound": "RKQWPQ [DPL_1050]", "Kd": 0.556},
      {"compound": "WHFMIK [DPL_1048]", "Kd": 0.13},
      {"compound": "RKQGVK [DPL_1054]", "Kd": 192},
      {"compound": "RKQKDW [DPL_1049]", "Kd": 0.35},
      {"compound": "RKQICW [DPL_1053]", "Kd": 21.8},
      {"compound": "RKQSHK [DPL_1052]", "Kd": 44.5},
      {"compound": "WHFGSK [DPL_1047]", "Kd": 69.8},
      {"compound": "RKQFDK [DPL_1051]", "Kd": 0.00736}
    ]},
    {"molecular_target": "T1, amyloid β-protein 42 (Aβ-42) (Homo sapiens, UniProt P05067)", "T1 construct": "amyloid β-protein 42 (Aβ-42, n = 79)", "T1 sequence (P05067 672-713 limits assumed)": "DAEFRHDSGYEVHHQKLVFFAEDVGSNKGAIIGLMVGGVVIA", "assay": "SPR affinity assay (Biacore X100), KD of peptides to Aβ-42", "type": "binding", "details": "Biacore X100, protein coupled to CM5 chip, HBS-EP buffer, six peptide concentrations, same value repeated on each docking-run line", "method": "as §1", "units": {"Kd": "µM"}, "values": [
      {"compound": "YVRHGH [DPL_1069]", "Kd": 37.1}
    ]}
  ]
}
